{"source": "patent US6881584B1", "about": "“Infrared thermography” (SmithKline Beecham Corporation, priority 1998, dated 2005)", "key": {"HUVEC cells": {"test_system": "HUVEC cells", "conditions": "10 minutes", "experimental": "(§1) Heat generation was measured using a Stirling cooled Agema Thermovision 900 Infrared System AB (Marietta, Ga.) equipped with a SW Scanner and 40°×25° lens which detects a 2-5.4 micron spectral response. […] The focal distance was 6 cm. Images were captured using a recurs function set at 16 or an averaging function set at 32. The data was analyzed using OS-9 advanced systems and ERIKA 2.00 software according to the manufacturer's specifications (FLIR Infrared Systems AB, Danderyd, Sweden). Thermography of adipocytes was performed by maintaining the ambient temperature of the cultured cells at 37±0.02° C. using a Queue Systems Inc. (Parkersburg, W.Va.) incubator, model QWJ500SABA. Spectral analysis of yeast was performed at 30±0.02° C. using the same incubator system. After treating the cells with experimental agents (e.g., rotenone etc.), the temperature was equilibrated for 10 minutes in the incubator before measuring real time thermogenesis for all microtiter plate applications. Various color scales in the visible wavelength were used to depict the temperature fluctuations of the recorded images. Although temperature scales are constant, the color scale images are variable and can be adjusted with level and span controls."}, "tissue vascularization": {"test_system": "tissue vascularization", "conditions": "nude mice, vs control injection", "quoted_text": "Nude mice were injected with either VEGF peptide or a control followed by themographic imaging of both injection sites."}, "thoracic area": {"test_system": "thoracic area", "assay": "Infrared thermography of thoracic area of nude mice treated with inhalant", "assay_type": "in vivo", "conditions": "vs vehicle", "experimental": "(§2) Male AKR/J, C57BL/6J, and SWR/J mice were purchased from 4-8 weeks of age from Jackson Laboratories (Bar Harbor, Me.). Mice were fed high and low fats diets containing high sucrose as defined by Surwit et al., (Metabolism 44(5):645-651 (1995)). After 14 weeks on these diets, the intrascapular fur was shaved, the animals were dosed (intraperitineal) with 1 mg/kg of BRL37344, and the animals were anesthetized with isofluorane. Nude mice (BALB/C) were 6-8 weeks old and were dosed with inhalant two times before thermal profiling. The Lewis rat strain (200-250 g) were used for both the MED and inflammation experiments. Infrared thermographic images and temperature calculations were recorded using an Agema Thermovision 900 Infrared System.\nFurthermore, the bioavailability and bioactivity of inhalants in animals and man is often difficult to measure and quantitate. Assays available for measuring bioavailabilty of inhalants involve measuring the uptake of radiolabeled inhalant in selected tissues (eg. lung). Infrared thermography provides a non-invasive method for measuring the bioavailibilty/bioactivity of inhalant compounds. Thus, infrared thermography was used to measure the thermal activity induced by an inhalant in the thoracic area of nude mice."}, "genitalia": {"test_system": "genitalia", "assay": "Thermogenesis in rat genitalia (male erectile dysfunction)", "assay_type": "in vivo", "conditions": "rats, 2 hours after PO dosing, 3.0 or 0.3 mg/kg", "experimental": "as §2\nMale erectile dysfunction (MED) is treatable with drugs that increase blood flow to the genitalia. Increased local thermogenesis is associated with increased local blood flow. One drug that acts in this manner and treats MED is Pinacidil. […] Thus, infrared thermography provides a quantitative and non-invasive method for identifying and evaluating drug candidates for the MED indication as well as identifying candidates that can cause erection as a side effect."}, "UCP2": {"test_system": "UCP2", "assay": "Infrared thermography of yeast expressing UCP2", "assay_type": "cell-based", "conditions": "galactose-induced UCP2", "experimental": "Human skeletal muscle cDNA (#7175-1) was purchased from Clontech (Palo Alto, Calif.). UCP2 specific-sequences were PCR amplified from the sample using oligonucleotide primers that matched the 5′ and 3′ ends of a published sequence (GenBank U82819). Vent polymerase was used (New England Biolabs, Beverly, Mass.) in a standard reaction mixture with 2 mM MgSO4 and 5% DMSO. The cycle parameters were 94° C. for 1 min., 55° C. for 1 min., and 72° C. for 1 min., repeated 29 times. The sample was passed over an S-400 spin column (Pharmacia, Piscataway, N.J.) prior to ligation in a vector for transformation of E. coli. The authenticity of the clone was confirmed by DNA sequence analysis. For the experiments in yeast, the UCP2 coding sequence was amplified by PCR using primers with the sequence […] AAGGCCA (SEQ ID NO:1) (sense) and […] (SEQ ID NO:2) (antisense) followed by a second PCR using primers with the sequence […] (SEQ ID NO:3) (sense) and […] (SEQ ID NO:4) (antisense). The PCR product was cloned into pYX233 (R&D Systems) by homologous recombination in yeast strain W303 (a/a homozygous for ade2-1, his3-1, 15 leu2-3, 112, trp1-1, ura3-1). Yeast transformants were selected on BSM-trp agar (Bio 101, Vista, Calif.). The correct UCP2 sequence was verified by sequencing plasmids back-extracted from yeast to E. coli. […]"}, "human adipocytes": {"test_system": "human adipocytes", "assay": "Infrared thermography of human adipocytes in 96-well plates", "assay_type": "cell-based", "conditions": "dose response, relative to untreated cells", "quoted_text": "Heat generation was measured using a Stirling cooled Agema Thermovision 900 Infrared System AB (Marietta, Ga.) equipped with a SW Scanner and 40°×25° lens which detects a 2-5.4 micron spectral response. […] The focal distance was 6 cm. Images were captured using a recurs function set at 16 or an averaging function set at 32. The data was analyzed using OS-9 advanced systems and ERIKA 2.00 software according to the manufacturer's specifications (FLIR Infrared Systems AB, Danderyd, Sweden). Thermography of adipocytes was performed by maintaining the ambient temperature of the cultured cells at 37±0.02° C. using a Queue Systems Inc. (Parkersburg, W.Va.) incubator, model QWJ500SABA. […] After treating the cells with experimental agents (e.g., rotenone etc.), the temperature was equilibrated for 10 minutes in the incubator before measuring real time thermogenesis for all microtiter plate applications. Various color scales in the visible wavelength were used to depict the temperature fluctuations of the recorded images. Although temperature scales are constant, the color scale images are variable and can be adjusted with level and span controls."}, "yeast": {"test_system": "yeast", "assay_type": "cell-based", "conditions": "dose response, relative to untreated cells", "quoted_text": "Heat generation was measured using a Stirling cooled Agema Thermovision 900 Infrared System AB (Marietta, Ga.) equipped with a SW Scanner and 40°×25° lens which detects a 2-5.4 micron spectral response. […] The focal distance was 6 cm. Images were captured using a recurs function set at 16 or an averaging function set at 32. The data was analyzed using OS-9 advanced systems and ERIKA 2.00 software according to the manufacturer's specifications (FLIR Infrared Systems AB, Danderyd, Sweden). […] Spectral analysis of yeast was performed at 30±0.02° C. using the same incubator system. After treating the cells with experimental agents (e.g., rotenone etc.), the temperature was equilibrated for 10 minutes in the incubator before measuring real time thermogenesis for all microtiter plate applications. Various color scales in the visible wavelength were used to depict the temperature fluctuations of the recorded images. Although temperature scales are constant, the color scale images are variable and can be adjusted with level and span controls."}, "C3H10T1/2 adipocytes [1]": {"test_system": "C3H10T1/2 adipocytes", "assay": "Infrared thermography of thermogenesis in cultured adipocytes (β-AR-agonists)", "assay_type": "cell-based", "conditions": "for EC50: Mus musculus", "experimental": "(§3) Human subcutaneous adipocytes were purchased from Zen-Bio, Inc. (Research Triangle Park, N.C.). C3H10T1/2 clone 8 fibroblasts were differentiated into adipocytes as previously described (Lenhard et al, Biochem. Pharmacol. 54:801-808 (1997), Paulik and Lenhard, Cell Tissue Res. 290:79-87 (1997)). After 7 days in culture, triglyceride accumulation was determined by adding lipoprotein lipase and GPO-Trinder reagent (assay kit 337-B, Sigma Diagnostics, St. Louis, Mo.) to the cells (50 μl/cm^2) and incubating the lysates at 37° C. for 2 hours. The optical density was measured using a spectrophotometer set at a wavelength of 540 nm. Lipolysis was measured as previously described (Lenhard et al, Biochem. Pharmacol. 54:801-808 (1997)).\nas §1\nThe β3-AR-agonists are candidate therapeutic agents for the treatment of diabetes and obesity. Although, the mechanism of action for these agents is thought to involve increased metabolic rate (Scarpace, Ann. N.Y. Acad. Sci. 813:111-116 (1997)), it has yet to be shown that β-AR-agonists increase heat output by adipocytes. Therefore, it was determined whether infrared imaging could be used to monitor the effects of β-AR-agonists on thermogenesis in cultured adipocytes.\n(§4) As a control, the effects of β-AR-agonists on lipolysis was also measured. […] In general, this expands to measuring thermogenic activity of both catabolic and anabolic mediated-effects of potential drug candidates."}, "[2]": {"biological_target": "T1, beta 3 adrenergic receptor (β3AR) (Homo sapiens, UniProt P13945)", "T1 construct": "expressed in transfected cells; host or cells: Chinese Hamster Ovary (CHO) cells", "T1 sequence (P13945 whole entry)": "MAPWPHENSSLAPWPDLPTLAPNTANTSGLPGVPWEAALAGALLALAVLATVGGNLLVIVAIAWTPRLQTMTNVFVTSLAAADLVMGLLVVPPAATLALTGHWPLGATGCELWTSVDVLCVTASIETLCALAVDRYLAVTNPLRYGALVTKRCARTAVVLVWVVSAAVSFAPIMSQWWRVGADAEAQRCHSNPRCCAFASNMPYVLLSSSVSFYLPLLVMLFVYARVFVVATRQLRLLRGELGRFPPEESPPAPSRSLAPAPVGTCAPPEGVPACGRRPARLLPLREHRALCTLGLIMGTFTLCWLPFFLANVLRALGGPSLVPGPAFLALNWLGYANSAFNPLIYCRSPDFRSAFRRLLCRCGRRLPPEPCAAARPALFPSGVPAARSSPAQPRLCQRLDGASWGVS", "assay": "Infrared thermography of CHO cells overexpressing the β3AR receptor", "assay_type": "cell-based", "experimental": "as §1"}, "C3H10T1/2 adipocytes [3]": {"test_system": "C3H10T1/2 adipocytes", "assay": "Lipolysis in adipocytes treated with β-AR-agonists", "assay_type": "cell-based", "conditions": "Mus musculus, C3H 10T1/2, read-out: EC50 (nM) Lipolysis", "experimental": "as §3, §4"}, "hair-loss": {"test_system": "hair-loss", "assay": "Chemotherapy-induced hair-loss by infrared thermography in newborn pups treated in utero", "assay_type": "in vivo, rat", "conditions": "6 mg/kg", "from_the_text": "Hair loss can result from undesirable side-effects of various therapies (e.g., radiation treatment of cancer patients, surgery etc.) and can occur naturally with age, whereas surgical or pharmacological intervention can restore hair growth. Since hair provides insulation against heat loss and aids in the maintenance of a constant body temperature, it was of interest to determine if infrared thermography can be used to measure hair loss. The lack of progress in the treatment and prevention of chemotherapy-induced alopecia is in part due to the lack of a reproducible animal model as well as a quantitative method to measure hair-loss. To determine if infrared imaging can be used to quantitatively measure chemotherapy induced hair-loss, newborn rat pups that were treated in utero with the known cancer agent, etoposide, were thermally profiled for hair-loss."}, "liver": {"test_system": "liver", "assay_type": "in vivo", "conditions": "ob/ob mice, 0.1-1 mg/kg i.p., 90 minutes, dose-dependent", "experimental": "FIG. 29. Liver thermogenesis in ob/ob mice 90 minutes after treatment with lipopolysaccharide (LPS) detected by IR thermography. Male ob/ob mice were housed and maintained as described in FIG. 1. Mice were dosed at 0.0, 0.1, 0.3, or 1 mg/kg LPS in water vehicle (0.5 mL i.p.; n=10 per dose) and anesthetized using isoflurane as described above 90 minutes after treatment. The abdomens of the anesthetized mice were surgically opened to expose the liver and Bioclusive adhesive was placed over the entire exposed area. IR images of the liver region were acquired and analyzed as detailed in FIG. 28. […] Quantification of the IR signal in the liver region is shown in the bottom panel. Data are means±SEM for n=10 animals per group. Asterisks (*) denote statistical differences from control (p<0.05, ANOVA with Student-Newman-Keuls post hoc tests).\nUse of IR transparent adhesive to image liver thermogenesis in vivo. […] Indeed, temperature measurements obtained by IR thermography correlated well with liver toxicity measured as AST release (r=0.99). In addition, temperature changes measured using IR thermography correlated with alanine aminotransferase (ALT) release, another marker of liver injury (r=0.76, data not shown)."}, "C3H10T1/2 cells": {"test_system": "C3H10T1/2 cells", "assay": "Infrared thermography of heat production in differentiating C3H10T1/2 cells (PPARγ agonists)", "assay_type": "cell-based", "conditions": "in the presence of insulin and 9-cis retinoic acid (FIG. 7), read-out: EC50(μM), thermogenesis and lipogenesis assays", "experimental": "as §3\nHeat generation was measured using a Stirling cooled Agema Thermovision 900 Infrared System AB (Marietta, Ga.) equipped with a SW Scanner and 40°×25° lens which detects a 2-5.4 micron spectral response. […] The focal distance was 6 cm. Images were captured using a recurs function set at 16 or an averaging function set at 32. The data was analyzed using OS-9 advanced systems and ERIKA 2.00 software according to the manufacturer's specifications (FLIR Infrared Systems AB, Danderyd, Sweden). […] Various color scales in the visible wavelength were used to depict the temperature fluctuations of the recorded images. […]"}, "[4]": {"test_system": "intrascapular brown adipose tissue (IBAT)", "assay": "IBAT thermogenesis in ob/ob mice treated with PPARγ agonist", "assay_type": "in vivo", "conditions": "two weeks treatment, compared to control animals", "experimental": "as §1"}}}
{"molecule": "VEGF", "values": [{"measurement": "thermogenesis in HUVEC cells", "setting": "HUVEC cells", "result": "induced thermogenesis"}, {"measurement": "thermogenesis in local area of injection", "setting": "tissue vascularization", "result": "enhanced thermogenesis"}]}
{"molecule": "CC(C)(C)NCC(O)c1ccc(O)c(CO)c1", "note": "(centres unmarked) [Albuterol]", "values": [{"measurement": "torso area temperature", "setting": "thoracic area", "result": "torso temperature increases after 2.5 minutes"}]}
{"molecule": "CC(N/C(=N\\C#N)Nc1ccncc1)C(C)(C)C", "note": "(centres unmarked) [Pinacidil]", "values": [{"measurement": "thermogenesis in the genitalia", "setting": "genitalia", "result": "increase in thermogenesis"}]}
{"molecule": "C=C(C)[C@H]1Cc2c(ccc3c2O[C@@H]2COc4cc(OC)c(OC)cc4[C@@H]2C3=O)O1", "note": "[Rotenone]", "values": [{"measurement": "UCP2-mediated thermogenesis", "setting": "UCP2", "result": "inhibited"}, {"measurement": "thermogenesis in human adipocytes", "setting": "human adipocytes", "result": "inhibited thermogenesis"}, {"measurement": "thermogenesis in yeast", "setting": "yeast", "result": "inhibited thermogenesis"}, {"measurement": "EC50", "setting": "C3H10T1/2 adipocytes [1]; C3H 10T1/2, read-out: EC50 (nM) Thermogenesis", "result": 8.5, "unit": "nM"}, {"measurement": "thermogenesis of cells treated with β-AR-agonists", "setting": "C3H10T1/2 adipocytes [1]; cells treated with 50 nM of the various β-AR-agonists", "result": "inhibited thermogenesis"}]}
{"molecule": "CC(C)NCC(O)c1ccc(O)c(O)c1", "note": "(centres unmarked) [Isoproterenol]", "values": [{"measurement": "thermogenic response of CHO cells", "setting": "[2]", "result": "responsive in a dose-dependent manner"}, {"measurement": "EC50", "setting": "C3H10T1/2 adipocytes [3]", "result": 27.1, "unit": "nM"}, {"measurement": "stimulation of thermogenesis", "setting": "C3H10T1/2 adipocytes [1]; C3H10T1/2 adipocytes", "result": "stimulated"}, {"measurement": "EC50", "setting": "C3H10T1/2 adipocytes [1]; C3H 10T1/2, adipocytes, infrared thermography, dose response, read-out: EC50 (nM) Thermogenesis", "result": 28, "unit": "nM"}]}
{"molecule": "COc1cc([C@@H]2c3cc4c(cc3[C@@H](O[C@@H]3O[C@@H]5CO[C@@H](C)O[C@H]5[C@H](O)[C@H]3O)[C@H]3COC(=O)[C@H]23)OCO4)cc(OC)c1O", "note": "[etoposide]", "values": [{"measurement": "thermal activity as a result of hair-loss", "setting": "hair-loss", "result": "increased thermal activity in both the fronts and backs as a result of hair-loss"}]}
{"molecule": "lipopolysaccharide [LPS]", "values": [{"measurement": "liver thermogenesis", "setting": "liver", "result": "thermogenesis is increased"}]}
{"molecule": "CN(CCOc1ccc(C[C@H](Nc2ccccc2C(=O)c2ccccc2)C(=O)O)cc1)c1ccccn1", "note": "[GW1929]", "values": [{"measurement": "EC50", "setting": "C3H10T1/2 cells", "result": 0.052, "unit": "µM"}, {"measurement": "IBAT thermogenesis", "setting": "[4]", "result": "reduction in IBAT thermogenesis"}]}
